Test results as given in PubChem BioAssay AID785 (University of Pittsburgh Molecular Library Screening Center, 2007).

Biological target: Serine/threonine-protein kinase PLK1 (Homo sapiens) (UniProt P53350)
Test: PLK1 kinase inhibitor potency, dose response, biochemical, TR-FRET, IC50 (AID 785)
Conditions: recombinant human Plk1, fluorescence polarization phosphopeptide binding, 3 h

Serine/threonine-protein kinase PLK1 (Homo sapiens), sequence (P53350 whole entry, looked up): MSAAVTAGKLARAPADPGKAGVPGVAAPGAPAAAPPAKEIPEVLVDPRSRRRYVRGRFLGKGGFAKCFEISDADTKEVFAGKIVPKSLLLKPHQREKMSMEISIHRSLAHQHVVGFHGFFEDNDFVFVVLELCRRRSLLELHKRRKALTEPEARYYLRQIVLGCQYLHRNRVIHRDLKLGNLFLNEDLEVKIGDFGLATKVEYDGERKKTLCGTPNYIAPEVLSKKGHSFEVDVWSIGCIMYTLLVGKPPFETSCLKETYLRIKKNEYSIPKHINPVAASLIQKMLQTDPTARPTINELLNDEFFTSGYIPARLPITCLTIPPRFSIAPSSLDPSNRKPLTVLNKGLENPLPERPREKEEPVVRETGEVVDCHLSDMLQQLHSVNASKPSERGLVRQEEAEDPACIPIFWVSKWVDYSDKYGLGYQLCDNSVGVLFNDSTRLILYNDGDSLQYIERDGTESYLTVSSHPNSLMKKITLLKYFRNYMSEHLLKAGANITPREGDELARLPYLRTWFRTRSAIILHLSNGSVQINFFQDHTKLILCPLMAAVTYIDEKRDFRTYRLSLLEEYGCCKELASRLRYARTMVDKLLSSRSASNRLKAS

Row | SMILES | IC50 [µM]
1 | COC(=O)c1sc2nc[nH]c(=O)c2c1C | 1.44
2 | CC1Cc2nc(SCC(=O)Nc3nccs3)n(C)c(=O)c2S1 (centres undefined) | 9.72
3 | COc1ccc(N2Nc3n[nH]c(N)c3N2)cc1 | 1.64
4 | N#Cc1c(-c2ccc3c(c2)OCO3)csc1N | 10.7
5 | Nc1ncnc(Nc2cccc(C(F)(F)F)c2)n1 | 0.469
6 | O=C(Nc1cccnc1)c1cnn2cccnc12 | 4.07
7 | O=c1[nH]cnc2sc(-c3ccccc3)cc12 | 6.08
8 | COC(=O)c1c(-c2ccc(Br)cc2)noc1N | 7.93
9 | COc1cccc(Nc2ncnc3nc[nH]c23)c1 | 2.37
10 | N#C/C(=N\Nc1c(Cl)cccc1Cl)C(=O)NN | 0.814
11 | Nc1[nH]ncc1N=Nc1ccc(Cl)cc1 | 2.22
12 | Cc1cccc(Nc2ncnc3nc[nH]c23)c1 | 2.23
13 | CCOc1ccc(N2Nc3n[nH]c(N)c3N2)cc1 | 3.4
14 | Cc1oc2ncnc(N)c2c1C | 3.75
15 | COc1ccccc1Nc1ncnc2nc[nH]c12 | 1.01
16 | COc1cc(/C=C(\C#N)c2[nH]nc(N)c2C#N)cc(OC)c1O | 1.86
17 | CC1CCN(c2ncnc3nc[nH]c23)CC1 | 3.13
18 | Cc1nc2c([nH]1)C1(CCN(Cc3ccccc3)CC1)C(C#N)=C(N)O2 | 0.823
19 | C=CCNc1nc(N)c(C(=O)c2ccc3c(c2)OCO3)s1 | 3.85
20 | O=c1[nH]cnc2cc(-c3ccccc3)sc12 | 6.2

Row | SMILES | IC50 [µM]
21 | Cc1c(C(=O)OC(C)C)sc2nc[nH]c(=O)c12 | 4.01
22 | COc1ccc(Cn2c(N)c(C(=O)NCc3ccco3)c3nc4ccccc4nc32)cc1OC | 8.82
23 | Cc1cccc(N=Nc2c(N)n[nH]c2-c2ccc(Cl)cc2)c1 | 18.5
24 | Nc1ncnc(Nc2ccccc2C(F)(F)F)n1 | 4.84
25 | O=c1[nH]cnc2scc(-c3cccs3)c12 | 4.24
26 | c1ccc2c(-c3ccncc3)c[nH]c2c1 | 4.12
27 | Nc1nc2ccc([N+](=O)[O-])c(N)c2s1 | 0.235
28 | Nc1[nH]ncc1C(=O)Nc1cccc(C(F)(F)F)c1 | 0.888
29 | CCOC(=O)c1c(-c2ccncc2)csc1N | 7.01
30 | O=C(O)c1ccc2c(c1)[C@@H]1C=CC[C@@H]1[C@H](c1ccccn1)N2 | 16.9
31 | Cc1[nH]nc2c1C1(CCN(Cc3ccccc3)CC1)C(C#N)=C(N)O2 | 1.4
32 | CCOc1c(Br)ccc2c1sc1nc[nH]c(=O)c12 | 2.15
33 | CCOC(=O)c1sc2nc[nH]c(=O)c2c1C | 3.09
34 | NC(=O)c1ccc(C(F)(F)F)n(Cc2cccc(Cl)c2)c1=O | 22.8
35 | NNc1ncnc2c1cnn2-c1ccccc1 | 4.18
36 | CCc1nc2n[nH]c(N)c2c2c1CSC(C)(C)C2 | 5.1
37 | Cc1ncc([N+](=O)[O-])n1CCOC(=O)Nc1ccc(Cl)c(Cl)c1 | 0.775
38 | Cc1cc(C(C#N)c2cccc(Cl)c2)n2ncnc2n1 (centres undefined) | 5.98
39 | O=C(CSc1n[nH]c(-c2ccc(Cl)cc2Cl)n1)Nc1ccccn1 | 0.534
